Data taken from patent publication US20250325534A1, “MICROBIOCIDAL TETRAHYDROISOQUINOLINE DERIVATIVES” (SYNGENTA CROP PROTECTION AG, priority 2021, published 2025).

Experiments:
[1] = test system: Mycosphaerella graminicola; assay: Mycosphaerella graminicola (Septoria tritici) / liquid culture (Septoria blotch); type: cell-based; settings: Zymoseptoria tritici, 96 h, photometrically 4-5 days after application, read-out: control of Mycosphaerella graminicola
How it was run: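 Conidia from cryogenic storage mixed into potato dextrose broth, added to test compound in DMSO. Plates incubated at 24° C; growth inhibition read photometrically 4-5 days after application.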

Mycosphaerella arachidis = Mycosphaerella arachidis (Cercospora arachidicola) / liquid culture (early leaf spot); type: cell-based; settings: 96 h, photometrically 4-5 days after application, read-out: control of Mycosphaerella arachidis
How it was run: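 Cryostored M. arachidis conidia in potato dextrose broth were added to compound applied as DMSO solution. Incubated at 24 °C; growth inhibition measured photometrically 4-5 days after application.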

Alternaria solani = Alternaria solani / tomato / leaf disc (early blight); type: in vivo; settings: foliar, inoculated 2 days after application, vs untreated control
Monographella nivalis = Monographella nivalis (Microdochium nivale) / liquid culture (foot rot cereals); type: cell-based; settings: 96 h, photometrically 4-5 days after application, read-out: control of Monographella nivalis
How it was run: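 Microdochium nivale conidia in potato dextrose broth were added to test compound in DMSO and incubated at 24° C. Growth inhibition was measured photometrically 4-5 days after application.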

[2] = test system: Puccinia recondita f. sp. tritici; assay: Puccinia recondita f. sp. tritici / wheat / leaf disc preventative (brown rust); type: in vivo; settings: foliar, inoculated 1 day after application
Method: Example B14: Puccinia recondita f. Sp. Tritici/Wheat/Leaf Disc Preventative (Brown Rust) Wheat leaf segments cv. Kanzler are placed on agar in multiwell plates (24-well format) and sprayed with the formulated test compound diluted in water. The leaf disks are inoculated with a spore suspension of the fungus 1 day after application. The inoculated leaf segments are incubated at 19° C. and 75% relative humidity under a light regime of 12 h light/12 h darkness in a climate cabinet and the activity of a compound is assessed as percent disease control compared to untreated when an appropriate level of disease damage appears in untreated check leaf segments (7-9 days after application).

Phaeosphaeria nodorum = Phaeosphaeria nodorum (Septoria nodorum) / wheat / leaf disc preventative (glume blotch); type: in vivo; settings: Parastagonospora nodorum, foliar, inoculated 2 days after application
Method: Example B9: Phaeosphaeria nodorum (Septoria nodorum)/Wheat/Leaf Disc Preventative (Glume Blotch) Wheat leaf segments cv. Kanzler are placed on agar in a multiwell plate (24-well format) and sprayed with the formulated test compound diluted in water. The leaf disks are inoculated with a spore suspension of the fungus 2 days after application. The inoculated test leaf disks are incubated at 20° C. and 75% relative humidity under a light regime of 12 h light/12 h darkness in a climate cabinet and the activity of a compound is assessed as percent disease control compared to untreated when an appropriate level of disease damage appears in untreated check leaf disks (5-7 days after application).

Fusarium culmorum = assay: microbe, parasite or virus in culture; type: cell-based; settings: 72 h, read-out: control of Fusarium culmorum
Pyrenophora teres = Pyrenophora teres / barley / leaf disc preventative (net blotch); type: in vivo; settings: foliar, inoculated 2 days after application
Method: Example B16: Pyrenophora teres/Barley/Leaf Disc Preventative (Net Blotch) Barley leaf segments cv. Hasso are placed on agar in a multiwell plate (24-well format) and sprayed with the formulated test compound diluted in water. The leaf segments are inoculated with a spore suspension of the fungus 2 days after application. The inoculated leaf segments are incubated at 20° C. and 65% relative humidity under a light regime of 12 h light/12 h darkness in a climate cabinet and the activity of a compound is assessed as disease control compared to untreated when an appropriate level of disease damage appears in untreated check leaf segments (5-7 days after application).

Glomerella lagenarium = Glomerella lagenarium (Colletotrichum lagenarium) / liquid culture (anthracnose); type: cell-based; settings: Colletotrichum orbiculare, 72 h, photometrically 3-4 days after application, read-out: control of Glomerella lagenarium
How it was run: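 Conidia in potato dextrose broth added to test compound delivered as DMSO solution in microtiter plates; incubation at 24° C. Growth inhibition read photometrically 3-4 days after application.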

Botryotinia fuckeliana = Botryotinia fuckeliana (Botrytis cinerea) / liquid culture (gray mould); type: cell-based; settings: 72 h, growth inhibition photometrically 3-4 days after application, read-out: control of Botryotinia fuckeliana
How it was run: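 Botrytis cinerea conidia in Vogels nutrient broth added to test compound delivered in DMSO. Incubated at 24 °C; growth inhibition measured photometrically 3–4 days after application.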

Sclerotinia sclerotiorum = Sclerotinia sclerotiorum / liquid culture (cottony rot); type: cell-based; settings: 72 h, photometrically 3-4 days after application, read-out: control of Sclerotinia sclerotiorum
Method: Example B18: Sclerotinia sclerotiorum/Liquid Culture (Cottony Rot) Mycelia fragments of a newly grown liquid culture of the fungus are directly mixed into a nutrient broth (potato dextrose broth). After placing a DMSO solution of test compound into a microtiter plate (96-well format) the nutrient broth containing the fungal material is added. The test plates are incubated at 24° C. and the inhibition of growth is determined photometrically 3-4 days after application.

[3] = test system: Blumeria graminis f. sp. tritici; assay: Blumeria graminis f. sp. tritici / wheat / leaf disc preventative (powdery mildew); type: in vivo; settings: foliar, inoculated 1 day after application
Method: Example B7: Blumeria graminis f. Sp. Tritici (Erysiphe graminis f. Sp. Tritici)/Wheat/Leaf Disc Preventative (Powdery Mildew on Wheat) Wheat leaf segments cv. Kanzler are placed on agar in a multiwell plate (24-well format) and sprayed with the formulated test compound diluted in water. The leaf disks are inoculated by shaking powdery mildew infected plants above the test plates 1 day after application. The inoculated leaf disks are incubated at 20° C. and 60% relative humidity under a light regime of 24 h darkness followed by 12 h light/12 h darkness in a climate chamber and the activity of a compound is assessed as percent disease control compared to untreated when an appropriate level of disease damage appears on untreated check leaf segments (6-8 days after application).

Cc1ccc2c(c1)C(c1cnn(C)c1)CN(C(=O)c1cc(-c3ccc(F)cc3F)on1)C2 (centres unmarked) [Compound P-133, [5-(2,4-difluorophenyl)isoxazol-3-yl]-[6-methyl-4-(1-methylpyrazol-4-yl)-3,4-dihydro-1H-isoquinolin-2-yl]methanone]
≥ 80%: inhibition of growth at 20 ppm [1] | inhibition of growth at 20 ppm (Mycosphaerella arachidis) | pest or weed control at 200 ppm (Alternaria solani) | inhibition of growth at 20 ppm (Monographella nivalis) | pest or weed control at 200 ppm [2]

Cc1c(C2CN(C(=O)c3nnc(-c4ccccc4F)s3)Cc3ccccc32)cnn1C (centres unmarked) [Compound P-64, [4-(1,5-dimethylpyrazol-4-yl)-3,4-dihydro-1H-isoquinolin-2-yl]-[5-(2-fluorophenyl)-1,3,4-thiadiazol-2-yl]methanone]
≥ 80%: pest or weed control at 200 ppm (Phaeosphaeria nodorum) | inhibition of growth at 20 ppm [1] | inhibition of growth at 20 ppm (Mycosphaerella arachidis) | pest or weed control at 200 ppm (Alternaria solani) | inhibition of growth at 20 ppm (Fusarium culmorum) | inhibition of growth at 20 ppm (Monographella nivalis) | pest or weed control at 200 ppm (Pyrenophora teres) | inhibition of growth at 20 ppm (Glomerella lagenarium) | inhibition of growth at 20 ppm (Botryotinia fuckeliana)

Cn1cc(C2CN(C(=O)c3cc(-c4ccc(F)cc4F)on3)Cc3ccccc32)cn1 (centres unmarked) [Compound P-180, [5-(2,4-difluorophenyl)isoxazol-3-yl]-[4-(1-methylpyrazol-4-yl)-3,4-dihydro-1H-isoquinolin-2-yl]methanone]
≥ 80%: pest or weed control at 200 ppm (Phaeosphaeria nodorum) | inhibition of growth at 20 ppm [1] | inhibition of growth at 20 ppm (Mycosphaerella arachidis) | pest or weed control at 200 ppm (Alternaria solani) | inhibition of growth at 20 ppm (Monographella nivalis) | pest or weed control at 200 ppm (Pyrenophora teres) | inhibition of growth at 20 ppm (Sclerotinia sclerotiorum) | inhibition of growth at 20 ppm (Glomerella lagenarium) | inhibition of growth at 20 ppm (Botryotinia fuckeliana)

Cc1c(C2c3ccccc3CN(C(=O)c3cc(-c4ccc(F)cc4F)on3)C2(C)C)cnn1C (centres unmarked) [Compound P-100, [5-(2,4-difluorophenyl)isoxazol-3-yl]-[4-(1,5-dimethylpyrazol-4-yl)-3,3-dimethyl-1,4-dihydroisoquinolin-2-yl]methanone]
≥ 80%: pest or weed control at 200 ppm (Phaeosphaeria nodorum) | inhibition of growth at 20 ppm [1] | inhibition of growth at 20 ppm (Mycosphaerella arachidis) | pest or weed control at 200 ppm (Alternaria solani) | inhibition of growth at 20 ppm (Monographella nivalis) | pest or weed control at 200 ppm (Pyrenophora teres) | inhibition of growth at 20 ppm (Sclerotinia sclerotiorum) | inhibition of growth at 20 ppm (Glomerella lagenarium) | inhibition of growth at 20 ppm (Botryotinia fuckeliana)

Cn1cc(C2CN(C(=O)c3cc(-c4ccccc4)on3)Cc3ccc(C(F)(F)F)cc32)cn1 (centres unmarked) [Compound P-104, [4-(1-methylpyrazol-4-yl)-6-(trifluoromethyl)-3,4-dihydro-1H-isoquinolin-2-yl]-(5-phenylisoxazol-3-yl)methanone]
≥ 80%: pest or weed control at 200 ppm (Phaeosphaeria nodorum) | inhibition of growth at 20 ppm [1] | inhibition of growth at 20 ppm (Mycosphaerella arachidis) | pest or weed control at 200 ppm (Alternaria solani) | pest or weed control at 200 ppm [3] | inhibition of growth at 20 ppm (Monographella nivalis) | pest or weed control at 200 ppm (Pyrenophora teres) | pest or weed control at 200 ppm [2] | inhibition of growth at 20 ppm (Glomerella lagenarium)

Cn1cc(C2CN(C(=O)c3cc(-c4ccc(F)cc4F)on3)Cc3ccccc32)cn1 (single isomer, unassigned) [Compound P-143, [5-(2,4-difluorophenyl)isoxazol-3-yl]-[4-(1-methylpyrazol-4-yl)-3,4-dihydro-1H-isoquinolin-2-yl]methanone]
≥ 80%: pest or weed control at 200 ppm (Pyrenophora teres) | inhibition of growth at 20 ppm (Sclerotinia sclerotiorum)

Cc1c(C2CN(C(=O)c3cc(-c4ccc(F)cc4)no3)Cc3ccccc32)cnn1C (centres unmarked) [Compound P-109, [4-(1,5-dimethylpyrazol-4-yl)-3,4-dihydro-1H-isoquinolin-2-yl]-[3-(4-fluorophenyl)isoxazol-5-yl]methanone]
≥ 80%: pest or weed control at 200 ppm (Phaeosphaeria nodorum) | inhibition of growth at 20 ppm [1] | inhibition of growth at 20 ppm (Mycosphaerella arachidis) | pest or weed control at 200 ppm (Alternaria solani) | pest or weed control at 200 ppm [3] | inhibition of growth at 20 ppm (Monographella nivalis) | pest or weed control at 200 ppm (Pyrenophora teres) | pest or weed control at 200 ppm [2] | inhibition of growth at 20 ppm (Sclerotinia sclerotiorum) | inhibition of growth at 20 ppm (Glomerella lagenarium) | inhibition of growth at 20 ppm (Botryotinia fuckeliana)

Cc1c(C2CN(C(=O)c3cc(-c4ccccc4F)on3)Cc3ccccc32)cnn1C (centres unmarked) [Compound P-119, [4-(1,5-dimethylpyrazol-4-yl)-3,4-dihydro-1H-isoquinolin-2-yl]-[5-(2-fluorophenyl)isoxazol-3-yl]methanone]
≥ 80%: pest or weed control at 200 ppm (Phaeosphaeria nodorum) | inhibition of growth at 20 ppm [1] | inhibition of growth at 20 ppm (Mycosphaerella arachidis) | pest or weed control at 200 ppm (Alternaria solani) | inhibition of growth at 20 ppm (Fusarium culmorum) | inhibition of growth at 20 ppm (Monographella nivalis) | pest or weed control at 200 ppm (Pyrenophora teres) | inhibition of growth at 20 ppm (Glomerella lagenarium) | inhibition of growth at 20 ppm (Botryotinia fuckeliana)

Cc1cc(C(=O)N2Cc3ccccc3C(c3cnn(C)c3)C2)no1 (centres unmarked) [Compound P-194, (5-methylisoxazol-3-yl)-[4-(1-methylpyrazol-4-yl)-3,4-dihydro-1H-isoquinolin-2-yl]methanone]
≥ 80%: inhibition of growth at 20 ppm [1] | inhibition of growth at 20 ppm (Mycosphaerella arachidis) | inhibition of growth at 20 ppm (Monographella nivalis) | pest or weed control at 200 ppm [2] | inhibition of growth at 20 ppm (Glomerella lagenarium)

CCc1ccc(-c2cc(C(=O)N3Cc4ccccc4C(c4cnn(C)c4)C3)no2)cc1 (centres unmarked) [Compound P-171, [5-(4-ethylphenyl)isoxazol-3-yl]-[4-(1-methylpyrazol-4-yl)-3,4-dihydro-1H-isoquinolin-2-yl]methanone]
≥ 80%: pest or weed control at 200 ppm [2]

CC1c2ccc(OCC(F)(F)F)cc2C(C)(c2cnn(C)c2)CN1C(=O)c1cc(-c2ccc(F)cc2F)on1 (centres unmarked) [Compound P-34, [5-(2,4-difluorophenyl)isoxazol-3-yl]-[1,4-dimethyl-4-(1-methylpyrazol-4-yl)-6-(2,2,2-trifluoroethoxy)-1,3-dihydroisoquinolin-2-yl]methanone]
≥ 80%: inhibition of growth at 20 ppm [1] | inhibition of growth at 20 ppm (Mycosphaerella arachidis) | inhibition of growth at 20 ppm (Monographella nivalis) | pest or weed control at 200 ppm [2]

Cn1cc(C2CN(C(=O)c3cc(-c4cccs4)on3)Cc3ccccc32)cn1 (centres unmarked) [Compound P-206, [4-(1-methylpyrazol-4-yl)-3,4-dihydro-1H-isoquinolin-2-yl]-[5-(2-thienyl)isoxazol-3-yl]methanone]
≥ 80%: inhibition of growth at 20 ppm [1] | inhibition of growth at 20 ppm (Monographella nivalis) | pest or weed control at 200 ppm [2] | inhibition of growth at 20 ppm (Glomerella lagenarium)
